Test system: GUMC-403
Assay: viability at highest tested concentration (max response) relative to DMSO (% of DMSO control); higher = less cytotoxic
Conditions: library / dose series: MIPE library, 11-point 1:3 dilution; top concentration 23 µM; 48 h
In short: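 The value is viability at the highest tested concentration, expressed relative to vehicle control. Patient-derived GUMC-403 papilloma cells, grown by conditional reprogramming, were seeded at 700/well in 5 μL F + Y medium in 1536-well plates. After an overnight incubation at 37 °C, they received 23 nL of compound by pin tool for 48 h. Readout was CellTiter-Glo luminescence on a ViewLux, normalised to vehicle wells (100%) and empty wells (0%).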

Row | SMILES | viability
1 | O=P(O)(O)C(O)(Cn1ccnc1)P(=O)(O)O | 122

Same assay, conditions: library / dose series: MIPE library, 11-point 1:3 dilution; top concentration 46.1 µM; 48 h

Row | SMILES | viability
2 | CCNC(=O)Nc1ccc2ncc(Nc3ccc(C)cc3)nc2n1 | 108
3 | NC[C@@H]1O[C@H](O[C@H]2[C@@H](O)[C@H](O[C@@H]3[C@@H](O)[C@H](N)C[C@H](N)[C@H]3O[C@H]3O[C@H](CN)[C@@H](O)[C@H](O)[C@H]3N)O[C@@H]2CO)[C@H](N)[C@@H](O)[C@@H]1O.O=S(=O)(O)O.O=S(=O)(O)O.O=S(=O)(O)O | 119
4 | CCc1nc(-c2cccc(C)c2)c(-c2ccnc(NC(=O)c3ccccc3)c2)s1 | 108
5 | COC1=CC=C(C=C1)/C2=C(O)/C(=O)C3=C(O)C=C(O)C(=C3O2)CC=C(C)C | 138
6 | CC/C(=C(\c1ccccc1)c1ccc(OCCN(C)C)cc1)c1ccccc1 | 96
7 | CN(C)[C@H]\1[C@@H]2[C@@H](O)[C@@H]\3C(=C)C4=C(C(=CC=C4)O)C(=O)C3=C(\O)[C@@]2(O)C(=O)\C(=C1O)C(N)=O | 96.5
8 | CC(C)N(CCNC(=O)CN1CCCC1=O)C(C)C | 103
9 | C[C@@H]1C[C@H]2[C@@H]3\C=C(C)/C4=C/C5=C(C[C@]4(C)[C@H]3[C@@H](O)C[C@]2(C)[C@@]1(O)C(=O)CO)C=N[N]5C6=CC=CC=C6 | 125
10 | CCc1c(C(=O)C(N)=O)c2c(OCC(=O)O)cccc2n1Cc1ccccc1 | 103
11 | CC(C)CC(=O)N[C@H](C(=O)N[C@H](C(=O)N[C@@H](CC(C)C)[C@@H](O)CC(=O)N[C@@H](C)C(=O)N[C@@H](CC(C)C)[C@@H](O)CC(=O)O)C(C)C)C(C)C | 99.5
12 | CC1=C(C)C(=O)C(C(CCCCCC(=O)O)c2ccccc2)=C(C)C1=O (stereo not drawn) | 110
13 | c1cc(-c2cnn3cc(-c4ccc(OCCN5CCCCC5)cc4)cnc23)ccn1 | 48.4
14 | CN(CCOc1ccc(NS(C)(=O)=O)cc1)CCc1ccc(NS(C)(=O)=O)cc1 | 127
15 | CC(=O)NC(C)c1ccc(Oc2ccc(OC(C)C)cc2)cc1 (stereo not drawn) | 121
16 | O=C(Nc1nc2ccccc2n1CCN1CCOCC1)c1cccc([N+](=O)[O-])c1 | 124
17 | CN(N=O)C(=O)N[C@H]1C(O)OC(CO)[C@@H](O)[C@@H]1O (stereo partly drawn) | 113
18 | CCCCOc1ccc(C(=O)Nc2ccc(F)cc2F)cc1 | 101
19 | OCc1ccccc1O[C@@H]1O[C@H](CO)[C@@H](O)[C@H](O)[C@H]1O | 151
20 | CN(C)CC(=O)N1CCC(CC1)C2=CC=C(NC(=O)C3=NC(=C[NH]3)C#N)C(=C2)\C4=C\CCCC4 | 129
21 | O=S(=O)([O-])CCS.[Na+] | 147
22 | OC(CCN1CCCCC1)(C2CC\3CC2\C=C3)C4=CC=CC=C4 (stereo not drawn) | 136

Row | SMILES | viability
23 | Cc1cc2c(cc1C1(c3ccc(C(=O)O)cn3)CC1)C(C)(C)CCC2(C)C | 129
24 | CC1(C)Cc2c(-c3ccccc3)c(-c3ccc(Cl)cc3)c(CC(=O)O)n2C1 | 102
25 | CC(C)OC(=O)[C@H](C)N[P@](=O)(OC[C@H]1O[C@@H](N2\C=C/C(=O)NC2=O)[C@](C)(F)[C@@H]1O)OC3=CC=CC=C3 | 107
26 | CCCC[S+](=N)([O-])CCC(N)C(=O)O (stereo not drawn) | 111
27 | CC(C)(C)/[N+]([O-])=C/c1ccc([S+](=O)([O-])[O][Na])cc1[S+](=O)([O-])[O][Na] | 84.5
28 | COc1ccc2c(c1)CN(C)CC2c1ccc(Cl)c(Cl)c1 (stereo not drawn) | 129
29 | COC1=CC=CC(=C1/C2=N/CC3=C(N=C(NC4=CC(=C(C=C4)C(O)=O)OC)N=C3)C5=CC=C(Cl)C=C25)F | 45.4
30 | NCCCCNCCCN | 121
31 | C/C=C(/C(=C/C)c1ccc(O)cc1)c1ccc(O)cc1 | 89.2
32 | CC(=O)Nc1ccc(O)cc1 | 123
33 | Cc1n[nH]c(C)c1Cc1sc2c(c1C(=O)N1C[C@H](O)CO1)c(=O)n(C)c(=O)n2CC(C)C | 119
34 | FC1=CC=C(SC/2=N/N3\C=N/C(=O)/C(=C3/C=C2)C4=C(Cl)C=CC=C4Cl)C(=C1)F | 108
35 | O=C1c2c(O)cc(O)cc2OC(c2ccc(O)c(O)c2)C1O (stereo not drawn) | 116
36 | CC1(C)[C@H](C(=O)O)N2C(=O)C[C@H]2[S+]1(=O)[O-] | 106
37 | Cn1cnc2c1c(=O)[nH]c(=O)n2C | 127
38 | CCN(CC)CCCCNc1ncc2c(n1)N(C)C(=O)N(c1c(Cl)c(OC)cc(OC)c1Cl)C2 | 99.8
39 | Nc1cc(c(cc1S(=O)(N)=O)S(N)(=O)=O)C(/Cl)=C(/Cl)Cl | 105
40 | CN1CCN(CC1)C2=CC3=C([NH]C(=N3)C/4=C(\N)C5=C(F)C=CC=C5NC4=O)C=C2 | 123
41 | CC(=O)O[C@H]1C(=O)[C@]2(C)[C@@H](O)C[C@H]3OC[C@@]3(OC(C)=O)C2[C@H](OC(=O)C4=CC=CC=C4)[C@]5(O)C[C@H](OC(=O)[C@H](O)[C@@H](NC(=O)C6=CC=CC=C6)C7=CC=CC=C7)\C(=C1/C5(C)C)C (stereo partly drawn) | 97.8
42 | COc1cccc2c(NCc3ccccc3)nc(-n3c(N)nc4ccccc43)nc12 | 131
43 | O=c1[nH]c2ccccc2n1CCCN1CCC(n2c(=O)[nH]c3cc(Cl)ccc32)CC1 | 130

Row | SMILES | viability
44 | C[C@@H](CN1CC(=O)NC(=O)C1)N1CC(=O)NC(=O)C1 | 118
45 | FC1=CC=C(C=C1)N2/C=C\C=C(C(=O)NC3=CC=C(OC4=C5C=C[NH]C5=NC=C4)C(=C3)F)/C2=O | 98.8
46 | CC(C)C(C)/C=C/C(C)C1CCC2C3=CC=C4CC(O)CCC4(C)C3CCC21C (stereo not drawn) | 130
47 | COc1ccc2cc(-c3[nH]c(-c4ccc([S+](C)[O-])cc4)nc3-c3ccncc3)ccc2c1 (stereo not drawn) | 144
48 | CC1(C)O[C@@H]2C[C@H]3[C@@H]4CCC5=CC(=O)C=C[C@]5(C)[C@@]4(F)[C@@H](O)C[C@]3(C)[C@]2(C(=O)CO)O1 | 117
49 | CN1CCN(CCCN2c3ccccc3Sc3ccc(C(F)(F)F)cc32)CC1 | 79.1
50 | CN1C(=O)\C(=C/C2=C1N=C(NC3CCOCC3)N=C2)OC4=C(F)C=C(F)C=C4 | 85.5
51 | O=C(CS(=O)Cc1ccco1)NC/C=C\COc1cc(CN2CCCCC2)ccn1 (stereo not drawn) | 128
52 | c1ccc2c(Oc3nc(Nc4ccc(N5CCOCC5)cc4)c4ncn(C5CCCCC5)c4n3)cccc2c1 | 124
53 | Clc1ccccc1C(c1ccccc1)(c1ccccc1)n1ccnc1 | 99.5
54 | CC[C@@H](C)[C@H](NC(=O)[C@H](CC1CCCCC1)NC(=O)c1ccno1)C(=O)N1CCC2(CCc3ccccc32)CC1 | 90.5
55 | Cc1cccc(Nc2nc(-c3ccncc3)cs2)c1 | 109
56 | C[C@]12CC[C@@H]3c4ccc(O)cc4CC[C@H]3[C@@H]1[C@@H](O)[C@@H](O)[C@@H]2O | 94.5
57 | Cc1ncc([N+](=O)[O-])n1CCO | 106
58 | CC(C)(C)c1cc(C(=O)O)c(NC(=O)Nc2ccc3[nH]ncc3c2)s1 | 87.6
59 | CC(C)c1cnn2c(NCc3ccccc3)cc(NCCCCCCN)nc12 | 72.8
60 | CNC1CCC(N(Cc2cccc(-c3ccncc3)c2)C(=O)c2sc3ccccc3c2Cl)CC1 (stereo not drawn) | 110
61 | ClC/1=C(NCCN2CCOCC2)/C(=O)C3=C(C=CC=N3)C1=O | 2.43
62 | CN(C)[S+](=O)([O-])c1ccc2c(c1)C(=Cc1cc3c([nH]1)CCCC3)C(=O)N2 | 122
63 | Cn1c(CCCC(=O)O)nc2cc(N(CCCl)CCCl)ccc21 | 124
64 | CN1CCC(CNc2ccc3ncc(-c4cccc(OC(F)(F)F)c4)n3n2)CC1 | 52.5

Row | SMILES | viability
65 | CN(C)Cc1ccc(-c2nc3cccc4c3n2CCNC4=O)cc1 | 88.8
66 | COc1ccc(-c2nc3cc(C4=NNC(=O)CC4C)ccc3[nH]2)cc1 (stereo not drawn) | 119
67 | CCOC(=O)N1c2ccc(C(F)(F)F)cc2[C@@H](N(Cc2cc(C(F)(F)F)cc(C(F)(F)F)c2)C(=O)OC)C[C@H]1CC | 87.7
68 | Cc1ccc([C@@H]2O[C@H](CO)[C@@H](O)[C@H](O)[C@H]2O)cc1Cc1ccc(-c2ccc(F)cc2)s1 | 108
69 | CC(C)(O)/C=C\C(=O)[C@](C)(O)[C@H]1[C@H](O)C[C@]2(C)[C@@H]3CC=C4[C@@H](C=C(O)C(=O)C4(C)C)[C@]3(C)C(=O)C[C@@]12C | 83.7
70 | Cn1cc(/C=C/C(=O)c2cccc(F)c2)cc1/C=C/C(=O)NO | 103
71 | OC1=C(Cl)C=C(N\C2=C(\C(=O)NC2=O)C3=C(C=CC=C3)[N+]([O-])=O)C=C1 | 103
72 | c1cc(N[C@@H]2CCNC2)nc(-c2cnc3ccc(-c4cn[nH]c4)cn23)c1 | 122
73 | CO[C@@H]1C(N(C)C(=O)c2ccccc2)C[C@H]2O[C@]1(C)n1c3ccccc3c3c4c(c5c6ccccc6n2c5c31)C(=O)NC4=O (stereo partly drawn) | 76.6
74 | C=C1C(=O)OC(CCCCCCCC)C1C(=O)O (stereo not drawn) | 121
75 | CCCCCNC(=N)N/N=C/c1c[nH]c2ccc(OC)cc12 | 69.6
76 | Cc1cc(NC(=O)Nc2ccc(N(C)C)cc2)c2cc(F)cc(F)c2n1 | 124
77 | Cc1cnc(Nc2cccc(CN3CCOCC3)c2)nc1Nc1cccc([S+](=O)([O-])NC(C)(C)C)c1 | 101
78 | COc1ccc([S+](=O)([O-])N(C(C)=O)c2ccccc2/C=C/c2cc[n+]([O-])cc2)cc1 | 60.2
79 | C#CCN(C)[C@H](C)Cc1ccccc1 | 92.4
80 | CC(C)(O)CC[C@@H](O)[C@](C)(O)[C@H]1CC[C@@]2(O)C/3=C/C(=O)[C@@H]4C[C@@H](O)[C@@H](O)C[C@]4(C)[C@H]3CC[C@]12C | 111
81 | CC(Cc1ccc(O)c(O)c1)(NN)C(=O)O (stereo not drawn) | 96
82 | NC\1=N\C(=O)N(\C=C1)[C@@H]2O[C@H](CO)[C@@H](O)[C@H]2O | 128
83 | O=C([O-])C(O)Cc1ccc(O)c(O)c1 (stereo not drawn) | 106
